Like-named read-outs stand apart in the source and are kept apart here.
How the values were obtained:
[1] = system: human ovarian cancer cell line SK-OV-3; assay: SK-OV-3 xenograft efficacy study in SCID mice; type: in vivo; conditions: after 19 days treatment; DOX only 3.3 mg/kg i.v. weekly
Description: In a fifth efficacy study, we generated xenografts of the human ovarian cancer cell line SK-OV-3, a cell line considered doxorubicin-resistant, by bilateral subcutaneous (s.c.) injection of 1×10^7 tumor cells to establish localized tumors in 6-8 week old female SCID mice. Using rifabutin co-administered with DOX, in vivo efficacy was assessed. […] Cycles of Dox or Dox+rifabutin were given once a week for 4 cycles. This cyclical dosing scheme of mouse models has precedent in the literature and is intended to mimic the cycles of DOXIL® (Centocor Ortho Biotech Products, LP, Raritan, N.J.) given in the clinic. Rifabutin was administered on the day of each DOX treatment and by gavage. Mouse body weight and tumor size were monitored.

[2] = system: multi-drug resistant ovarian cancer cell line NCI/ADR-RES; assay: Cell growth assay on NCI/ADR-RES cells; type: cell-based; conditions: ADR-RES; for IC50: Homo sapiens, NCI/ADR-RES
[3] = system: CHOP-sensitive NHL cell line CRL2631; assay: Cell growth assay (resazurin) on CHOP-sensitive CRL2631 NHL cells; type: cell-based, human; conditions: CRL2631; for IC50: Homo sapiens
[4] = system: G3 CHOP-resistant NHL cells; conditions: fourth study; doxorubicin only group
Description: In a first efficacy study, 6-8 week old female SCID mice (7 mice per treatment arm) were injected subcutaneously on both flanks with 1×10^7 G3 CHOP-resistant NHL cells. Once palpable tumors (about […] size) appeared, therapies (CHOP or CHOP+rifabutin) were started. CHOP was administered at the maximum tolerated dose (cyclophosphamide, 40 mg/kg i.v.; doxorubicin, 3.3 mg/kg i.v.; vincristine, 0.5 mg/kg i.v.; and prednisone, 0.2 mg/kg orally daily for 5 d) weekly for 3 weeks. Rifabutin in an amount of 100 mg/kg was administered on the day of each CHOP treatment and 24-hours later by gavage. Mouse body weight and tumor size were monitored every two days and tumor size measured by caliper. The tumor volume formula (L*W*W)/2 was used to calculate tumor mass.
A second efficacy study was conducted where mice were treated before the appearance of palpable tumors. In that experiment, one week after transplantation of CHOP-resistant G3 cells, one group (7 mice) was treated with CHOP-only and a second group (8 mice) was treated with CHOP+rifabutin.
A third study was conducted in which mice injected with CHOP-resistant G3 cells received reduced dosages of CHOP in combination with 33 mg/kg rifabutin. CHOP+rifabutin was administered weekly beginning one week post-inoculation. Control mice were given no CHOP or rifabutin.
SCID mice were injected with CHOP-resistant G3 cells in the same manner as the first efficacy study above. Treatments began 2 weeks post-inoculation and were administered twice weekly.

[5] = system: lymphoma cell line G3; assay: Cell growth assay (resazurin fluorescence) on CHOP-resistant G3 NHL cells; type: cell-based, human; conditions: for IC50: Homo sapiens
In short: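 CHOP-resistant G3 NHL cells grown five days in RPMI medium were counted by haemocytometer and set to 625,000 cells/ml. They were then added to plates holding test drug, first dissolved in 100% DMSO and diluted in 0.1M PBS to 0.5% final DMSO. Plates incubated 96 hours at 37° C. and 5% CO2. Resazurin at 20 μg/ml was added for a further 24 hours, and plates were read on a BMG Polarstar at 573-605.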

[6] = after administration; cited from earlier work
[7] = system: T lymphoblastoid leukemia MOLT-4; assay: Cell growth assay on MOLT-4 cells; type: cell-based; conditions: for IC50: Homo sapiens
Description: Compositions were tested on CHOP-resistant G3 NHL cells that had been cultivated in RPMI medium for five days. Prior to assay, the cells were counted by haemocytometer and cell concentration standardized to 625,000 cells/ml. Test drugs were solubilized in 100% DMSO and then diluted to final assay concentration with 0.1M phosphate buffered saline (PBS) and a final DMSO concentration of 0.5%. Cells were added to assay plates containing the test drugs (rifabutin+148 ng/ml, 74 ng/ml, 37 ng/ml, or 0 ng/ml doxorubicin) and allowed to incubate for 96 hours at 37° C. and 5% CO2. The metabolic dye rezasurin was added to the wells of the assay plate at a final concentration of 20 μg/ml and the plates were incubated for an additional 24 hours. The plates were then read in a BMG Polarstar plate reader at wavelength (573-605) and the data plotted as OD versus increasing dilutions (i.e. decreasing total amounts) of rifabutin derivative concentration.
Additional cell lines used include: ovarian cancer OVCAR-8, T lymphoblastoid leukemia MOLT-4, dexamethasone-resistant multiple myeloma MM.1R, myeloid leukemia cells HL-60, osteosarcoma cells U-2 OS, and myeloma RPMI 8226.

[8] = therapeutic drug alone, read-out: IC50
[9] = therapeutic drug with Rifabutin, read-out: IC50 (μM) with Rifabutin

COc1cccc2c1C(=O)c1c(O)c3c(c(O)c1C2=O)C[C@@](O)(C(=O)CO)C[C@@H]3O[C@H]1C[C@H](N)[C@H](O)[C@H](C)O1 [Doxorubicin, doxorubicin]
average tumor volume [1]: 587 mm^3
IC50 [2, 8]: > 32 µM
IC50 [2, 9]: 6.59 µM
Fold increase in potency ([2]; with vs without Rifabutin): >4.9 fold
IC50 [3, 8]: 0.35 µM
IC50 [3, 9]: 0.12 µM
Fold increase in potency ([3]; with vs without Rifabutin): 2.9 fold
mean lifespan [4]: 34.6
median lifespan [4]: 33
times as likely to die before those treated with doxorubicin+RTI-81 [4]: 10.37 times
IC50 ([5]; analog alone, lymphoma cell line G3, read-out: IC50): 2.36 µM
IC50 ([5]; therapeutic drug with Rifabutin, G3, read-out: IC50 (μM) with Rifabutin): 0.25 µM
Fold increase in potency ([5]; with vs without Rifabutin, G3): 9.4 fold
time of maximal tissue absorption [6]: 48 h
IC50 [7, 8]: 0.03 µM
IC50 [7, 9]: 0.01 µM
Fold increase in potency ([7]; with vs without Rifabutin): 3 fold

— patent US20150017673A1, “COMPOSITIONS AND METHODS FOR DRUG-SENSITIZATION OR INHIBITION OF A CANCER CELL” (priority 2012, published 2015)
